The target in one experiment is T1, GST-Aurora A (Homo sapiens, UniProt O14965).
T1 construct: N-terminal GST fusion with full length Aurora A (1-403 amino acids); purchased Carna Biosciences 05-101
T1 sequence (O14965 1-403): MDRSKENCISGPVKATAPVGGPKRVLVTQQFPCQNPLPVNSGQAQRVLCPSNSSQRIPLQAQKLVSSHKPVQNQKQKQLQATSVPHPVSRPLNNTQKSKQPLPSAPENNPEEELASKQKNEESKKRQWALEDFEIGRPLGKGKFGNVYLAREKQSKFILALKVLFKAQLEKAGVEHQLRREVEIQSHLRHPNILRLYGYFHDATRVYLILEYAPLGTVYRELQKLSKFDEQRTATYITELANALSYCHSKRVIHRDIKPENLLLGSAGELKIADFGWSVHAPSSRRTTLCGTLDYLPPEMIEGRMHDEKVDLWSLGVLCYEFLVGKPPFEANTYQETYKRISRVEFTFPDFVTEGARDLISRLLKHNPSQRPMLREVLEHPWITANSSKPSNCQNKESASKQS
As to the kind of experiment: Aurora A kinase biochemical mobility shift assay (Caliper LC3000 / Desktop Profiler). Conditions: AK A (Aurora kinase A) inhibition. The method, then:
(§1) The Aurora assays described here are performed on two Caliper Life Sciences systems: the LC3000 and the Desktop Profiler. The RON kinase assays are performed on the Desktop Profiler only. These provide data on enzyme activity via measurement of the relative amounts of phosphorylated or unphosphorylated fluorescently labelled substrate peptide at the end of an enzymatic reaction. These different states of peptide are resolved by applying a potential difference across the sample. The presence of the charged phosphate group on the product (as opposed to the substrate) causes a different peptide mobility between the two peptides. This is visualized by excitation of the fluorescent label on the substrate and product peptides and represented as peaks within the analysis software.
In order to measure inhibitor activity of Aurora A inhibitors in the Caliper Life Sciences LC3000, a TTP Mosquito liquid handling instrument is used to place 0.25 ul of the appropriate concentration of inhibitor in 100% DMSO (for a dose response curve calculation) into each well of a 384-well plate. To this reaction components are added to a final volume of 25 ul: • 0.067 ng/ul GST-Aurora A (Carna Biosciences 05-101. N-terminal GST fusion with full length Aurora A (1-403 amino acids), accession number NP_940835.1). • 15 uM ATP (Fluka, 02055) • 1 mM DTT (Sigma, D0632) • 1 mM MgCl2 (Sigma, M1028) • 1 uM substrate peptide (sequence FITC-LRRASLG-(CONH2), synthesized by Tufts Peptide Synthesis service. • 100 mM HEPES pH 7.5 (Calbiochem, 391338) • 0.015% Brij-35 (Sigma, B4184)
The reaction is incubated for 90 min at 25 C, and then stopped by the addition of 70 ul of Stop buffer (100 mM HEPES pH 7.5, 0.015% Brij-35, 10 mM EDTA (Sigma, E7889)).
The plate is read on a Caliper LC3000 in an Off-Chip mobility shift assay format, using the following parameters for a 12-sipper chip: screening pressure −1.8 psi, upstream voltage −2700, downstream voltage −1000. These conditions cause unphosphorylated substrate and phosphorylated product peptide to resolve as separate peaks allowing direct measurement of percentage of conversion of substrate to product. The percent conversion can be plotted against concentration of inhibitor to produce a sigmoidal dose response curve, from which an IC50 can be calculated using XLFit for Microsoft Excel.
(§2) The Desktop Profiler utilizes the same priniciple as the LC3000 for calculating percentage conversion of a substrate to product. Caliper Life Sciences provides proprietary flash frozen pre-made 384 well plates containing selected kinases. Each column in the 384 well plate contains a particular selected kinase. A second plate, the ‘substrate plate’ contains a mix of fluorescently labeled peptide substrate and ATP. These are arranged in columns so that transfer for substrate plate to enzyme plate provides the correct enzyme with the correct substrate/ATP concentration. Compounds are added to a thawed enzyme plate in the desired format, in single concentrations. Reactions are initiated by transfer of the substrate/ATP mix from the substrate plate. The enzyme plate is incubated for 90 minutes at 25 C. The reaction is stopped by addition of 70 ul of Stop Buffer (100 mM HEPES pH 7.5, 0.015% Brij-35, 10 mM EDTA (Sigma, E7889)).
(§3) Reading of the plate in the Profiler is identical to the LC3000, and the ratio between substrate and product peaks provides the activity of the enzyme in that well. This is best represented by a plate heat map which colors each well by percent inhibition as compared to positive and negative controls (no inhibitors and no ATP respectively).
By IC50 is commonly meant the concentration that inhibits the measured activity by half. Consider `O=C(Nc1ccc(Nc2ccnc3c2CN(C2CC2)C(=O)N3)cc1)c1ccccc1` [Example 14, N-(4-(3-cyclopropyl-2-oxo-1,2,3,4-tetrahydropyrido[2,3-d]pyrimidin-5-ylamino)phenyl) benzamide], for which the IC50 lay in the range of 100 to 1000 nM.
Still for that read-out and setting: the value for `CCN1Cc2c(Nc3ccc(NC(=O)c4ccccc4)cc3)ccnc2NC1=O` [Example 35, N-(4-(3-ethyl-2-oxo-1,2,3,4-tetrahydropyrido [2,3-d]pyrimidin-5-ylamino)phenyl) benzamide] was 10 to 100 nM; that for `O=C1NCc2c(Nc3ccc(NC(=O)c4ccccc4)cc3)ccnc2N1` [Example 4, N-(4-(2-oxo-1,2,3,4-tetrahydropyrido [2,3-d]pyrimidin-5-ylamino)phenyl)benzamide] was 10 to 100 nM.
Same read-out and setting: in the case of `O=C(Nc1ccc(Nc2ccnc3c2CN(c2ccccc2)C(=O)N3)c(F)c1)c1cccc(F)c1` [Example 26, 3-fluoro-N-(3-fluoro-4-(2-oxo-3-phenyl-1,2,3,4-tetrahydropyrido [2,3-d]pyrimidin-5-ylamino)phenyl) benzamide] it was 10 to 100 nM.
On the same count and under the same terms, the value for `COc1ccc(CN2Cc3c(Nc4ccc(NC(=O)c5ccccc5)cc4)ccnc3NC2=O)cc1` [Example 2] was 100 to 1000 nM; that for `CCN1Cc2c(Nc3ccc(NC(=O)c4ccc(F)cc4C(F)(F)F)cc3)ccnc2NC1=O` [Example 34, N-(4-(3-ethyl-2-oxo-1,2,3,4-tetrahydropyrido [2,3-d]pyrimidin-5-ylamino)phenyl)-4-fluoro-2-(trifluoromethyl) benzamide] was below 10 nM.
As to `O=C(Nc1ccc(Nc2ccnc3c2CNC(=O)N3)cc1)Nc1ccc(F)cc1C(F)(F)F` [Example 121, N-[4-fluoro-2-(trifluoromethyl)phenyl]-N′-{4-[(2-oxo-1,2,3,4-tetrahydropyrido[2,3-d]pyrimidin-5-yl)amino]phenyl}urea], the IC50 was in the range of 10 to 100 nM.
As for `CN1Cc2c(Nc3ccc(NC(=O)CC(F)(F)F)cc3)ccnc2NC1=O` [Example 24, 3,3,3-trifluoro-N-(4-(3-methyl-2-oxo-1,2,3,4-tetrahydropyrido [2,3-d]pyrimidin-5-ylamino)phenyl) propanamide], the IC50 fell in the range of 100 to 1000 nM.
Regarding `O=C(Nc1ccc(Nc2ccnc3c2CN(C2CC2)C(=O)N3)cc1)c1ccc(F)cc1C(F)(F)F` [Example 15, N-(4-(3-cyclopropyl-2-oxo-1,2,3,4-tetrahydropyrido [2,3-d]pyrimidin-5-ylamino)phenyl)-4-fluoro-2-(trifluoromethyl) benzamide], the IC50 fell in the range of 10 to 100 nM.
Still for that read-out and setting: in the case of `CCN1Cc2c(Nc3ccc(NC(=O)c4ccc(F)cc4C(F)(F)F)cc3F)ccnc2NC1=O` [Example 36, N-(4-(3-ethyl-2-oxo-1,2,3,4-tetrahydropyrido [2,3-d]pyrimidin-5-ylamino)-3-fluorophenyl)-4-fluoro-2-(trifluoromethyl) benzamide] it was below 10 nM.
The same measure, in the same setting: the value for `CN1Cc2c(Nc3ccc(NC(=O)c4cccc(F)c4)cc3F)ccnc2NC1=O` [Example 20, 3-fluoro-N-(3-fluoro-4-(3-methyl-2-oxo-1,2,3,4-tetrahydropyrido [2,3-d]pyrimidin-5-ylamino)phenyl) benzamide] was below 10 nM; that for `O=C(Nc1ccc(Nc2ccnc3c2CN(CCCN2CCCC2=O)C(=O)N3)cc1)c1ccc(F)cc1C(F)(F)F` [Example 31, 4-fluoro-N-(4-(2-oxo-3-(3-(2-oxopyrrolidin-1-yl)propyl)-1,2,3,4-tetrahydropyrido [2,3-d]pyrimidin-5-ylamino)phenyl)-2-(trifluoromethyl) benzamide] was 10 to 100 nM; that for `COc1ccc(CN2Cc3c(Nc4ccc(NC(=O)Nc5ccc(F)c(F)c5)cc4)ccnc3NC2=O)cc1` [Example 120, N-(3,4-difluorophenyl)-N′-(4-{[3-(4-methoxybenzyl)-2-oxo-1,2,3,4-tetrahydropyrido[2,3-d]pyrimidin-5-yl]amino}phenyl)urea] was 100 to 1000 nM.
Still for that read-out and setting: the value for `O=C1NCc2c(Nc3ccc(NC(=O)c4ccc(F)cc4C(F)(F)F)cc3)ccnc2N1` [Example 6, 4-fluoro-N-(4-(2-oxo-1,2,3,4-tetrahydropyrido[2,3-d]pyrimidin-5-ylamino)phenyl)-2-(trifluoromethyl) benzamide] was below 10 nM.
In the case of `O=C(Nc1ccc(Nc2ccnc3c2CN(c2ccccc2)C(=O)N3)cc1)c1ccc(F)cc1C(F)(F)F` [Example 27, 4-fluoro-N-(4-(2-oxo-3-phenyl-1,2,3,4-tetrahydropyrido [2,3-d]pyrimidin-5-ylamino)phenyl)-2-(trifluoromethyl) benzamide], the IC50 was in the range of 10 to 100 nM.
Regarding `O=C1NCc2c(Nc3ccc(NC(=O)c4ccc(F)cc4C(F)(F)F)cc3F)ccnc2N1` [Example 116, 4-fluoro-N-{3-fluoro-4-[(2-oxo-1,2,3,4-tetrahydropyrido[2,3-d]pyrimidin-5-yl)amino]phenyl}-2-(trifluoromethyl)benzamide], the IC50 is below 10 nM.
On the same count and under the same terms, the value for `O=C(Nc1ccc(Nc2ccnc3c2CN(c2ccc(CN4CCCC4)cc2)C(=O)N3)cc1)c1ccccc1` [Example 9, N-(4-(2-oxo-3-(4-(pyrrolidin-1-ylmethyl)phenyl)-1,2,3,4-tetrahydropyrido[2,3-d]pyrimidin-5-ylamino)phenyl)benzamide] was 100 to 1000 nM.
The same measure, in the same setting: the value for `COc1ccc(CN2Cc3c(Nc4ccc(NC(=O)CC(F)(F)F)cc4)ccnc3NC2=O)cc1` [Example 100, 3,3,3-trifluoro-N-(4-{[3-(4-methoxybenzyl)-2-oxo-1,2,3,4-tetrahydropyrido[2,3-d]pyrimidin-5-yl]amino}phenyl)propanamide] was 100 to 1000 nM; that for `O=C(Nc1ccc(Nc2ccnc3c2CN(c2ccc(CN4CCCC4)cc2)C(=O)N3)cc1)c1ccc(F)cc1C(F)(F)F` [Example 8, 4-fluoro-N-(4-(2-oxo-3-(4-(pyrrolidin-1-ylmethyl)phenyI)-1,2,3,4-tetrahydropyrido[2,3-d]pyrimidin-5-ylamino)phenyl)-2-(trifluoromethyl)benzamide] was 100 to 1000 nM.
The same measure, in the same setting: in the case of `O=C(Nc1ccc(Nc2ccnc3c2CN(CC(F)(F)F)C(=O)N3)cc1)c1ccc(F)cc1C(F)(F)F` [Example 38, 4-fluoro-N-(4-(2-oxo-3-(2,2,2-trifluoroethyl)-1,2,3,4-tetrahydropyrido [2,3-d]pyrimidin-5-ylamino)phenyl)-2-(trifluoromethyl) benzamide] it was 10 to 100 nM; in that of `CN1Cc2c(Nc3ccc(NC(=O)c4ccc(F)cc4C(F)(F)F)cc3F)ccnc2NC1=O` [Example 28, 4-fluoro-N-(3-fluoro-4-(3-methyl-2-oxo-1,2,3,4-tetrahydropyrido [2,3-d]pyrimidin-5-ylamino)phenyl)-2-(trifluoromethyl) benzamide], below 10 nM.

In the next experiment the target is T2, RON kinase (Homo sapiens, UniProt Q04912).
T2 construct: purchased Caliper Life Sciences
T2 sequence (Q04912 25-1400): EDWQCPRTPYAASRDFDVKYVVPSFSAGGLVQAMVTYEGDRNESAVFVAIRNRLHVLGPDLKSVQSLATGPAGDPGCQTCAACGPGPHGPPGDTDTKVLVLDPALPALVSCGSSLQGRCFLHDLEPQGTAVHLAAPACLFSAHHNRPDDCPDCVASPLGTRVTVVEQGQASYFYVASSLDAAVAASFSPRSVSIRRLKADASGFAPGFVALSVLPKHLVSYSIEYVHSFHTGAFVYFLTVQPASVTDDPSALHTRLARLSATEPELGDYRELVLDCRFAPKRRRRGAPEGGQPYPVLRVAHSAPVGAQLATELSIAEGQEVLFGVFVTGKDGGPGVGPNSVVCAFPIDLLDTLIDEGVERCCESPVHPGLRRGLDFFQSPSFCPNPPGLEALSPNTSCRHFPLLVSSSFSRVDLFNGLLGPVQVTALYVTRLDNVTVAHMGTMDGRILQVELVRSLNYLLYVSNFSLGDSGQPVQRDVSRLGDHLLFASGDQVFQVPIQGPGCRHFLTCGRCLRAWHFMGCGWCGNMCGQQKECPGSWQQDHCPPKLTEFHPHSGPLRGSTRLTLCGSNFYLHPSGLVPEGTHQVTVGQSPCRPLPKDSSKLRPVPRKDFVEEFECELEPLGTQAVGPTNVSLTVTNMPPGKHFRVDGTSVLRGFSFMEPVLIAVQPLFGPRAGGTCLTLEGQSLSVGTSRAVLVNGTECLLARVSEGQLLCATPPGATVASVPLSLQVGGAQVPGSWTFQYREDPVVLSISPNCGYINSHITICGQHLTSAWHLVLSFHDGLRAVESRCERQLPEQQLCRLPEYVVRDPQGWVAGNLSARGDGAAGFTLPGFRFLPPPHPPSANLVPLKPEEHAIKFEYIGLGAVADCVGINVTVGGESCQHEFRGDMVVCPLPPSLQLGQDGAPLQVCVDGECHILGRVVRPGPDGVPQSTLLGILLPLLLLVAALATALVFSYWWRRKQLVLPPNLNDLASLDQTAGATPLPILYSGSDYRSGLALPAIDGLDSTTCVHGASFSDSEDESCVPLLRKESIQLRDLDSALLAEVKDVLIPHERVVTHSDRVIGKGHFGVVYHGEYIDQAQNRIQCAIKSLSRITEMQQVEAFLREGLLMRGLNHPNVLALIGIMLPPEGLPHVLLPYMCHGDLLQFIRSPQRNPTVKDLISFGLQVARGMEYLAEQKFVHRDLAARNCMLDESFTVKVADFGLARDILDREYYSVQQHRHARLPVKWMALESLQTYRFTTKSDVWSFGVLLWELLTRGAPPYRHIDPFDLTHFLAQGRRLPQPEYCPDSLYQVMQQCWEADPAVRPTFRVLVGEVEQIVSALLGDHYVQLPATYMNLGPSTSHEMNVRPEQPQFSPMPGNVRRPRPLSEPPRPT
The experiment in a line: RON kinase biochemical mobility shift assay (Caliper Desktop Profiler). Conditions: RON kinase inhibition. The method, then:
as §1, §2, §3
For the compound `O=C(Nc1cccc(F)c1)Nc1ccc(Oc2ccnc3c2CNC(=O)N3)c(F)c1` [Example 269, 1-[3-Fluoro-4-(2-oxo-1,2,3,4-tetrahydro-pyrido[2,3-d]pyrimidin-5-yloxy)-phenyl]-3-(3-fluoro-phenyl)-urea], the IC50 was in the range of 10 to 100 nM.
Same read-out and setting: in the case of `O=C(Nc1ccc([N+](=O)[O-])cc1)Nc1ccc(Oc2ccnc3c2CNC(=O)N3)c(F)c1` [Example 272, 1-[3-Fluoro-4-(2-oxo-1,2,3,4-tetrahydro-pyrido[2,3-d]pyrimidin-5-yloxy)-phenyl]-3-(4-nitro-phenyl)-urea] it was 10 to 100 nM.
